Assay results reported in PubChem BioAssay (NCI).
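Step 1: Grow cells in 96-well plates. Step 2: Expose to compound for 48 hours at 5 concentrations. Step 3: Interpolate endpoints linearly; if unreached, use highest concentration. The concentration for full growth arrest is given as TGI.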

Assays:
Assay in all cases: DTP human tumour cell line panel, 48 h
COLO 205 colon = tested on: COLO 205 colon
DLD-1 colon = tested on: DLD-1 colon
DMS 114 small cell lung = tested on: DMS 114 small cell lung
DMS 273 small cell lung = tested on: DMS 273 small cell lung
HCT-15 colon = tested on: HCT-15 colon
HT29 colon = tested on: HT29 colon
M19-MEL melanoma = tested on: M19-MEL melanoma
NCI-H23 lung = tested on: NCI-H23 lung
SK-MEL-2 melanoma = tested on: SK-MEL-2 melanoma
UO-31 renal = tested on: UO-31 renal
DU-145 prostate = tested on: DU-145 prostate
HL-60(TB) leukemia = tested on: HL-60(TB) leukemia
HS 578T breast = tested on: HS 578T breast
MDA-MB-231 breast = tested on: MDA-MB-231 breast
XF 498 CNS = tested on: XF 498 CNS

| Structure (SMILES) | TGI (COLO 205 colon) [µM] | TGI (DLD-1 colon) [µM] | TGI (DMS 114 small cell lung) [µM] | TGI (DMS 273 small cell lung) [µM] | TGI (HCT-15 colon) [µM] | TGI (HT29 colon) [µM] | TGI (M19-MEL melanoma) [µM] | TGI (NCI-H23 lung) [µM] | TGI (SK-MEL-2 melanoma) [µM] | TGI (UO-31 renal) [µM] | TGI (DU-145 prostate) [µM] | TGI (HL-60(TB) leukemia) [µM] | TGI (HS 578T breast) [µM] | TGI (MDA-MB-231 breast) [µM] | TGI (XF 498 CNS) [µM] |
| --- | --- | --- | --- | --- | --- | --- | --- | --- | --- | --- | --- | --- | --- | --- | --- |
| Cc1ccc(NC(=O)/C(=N/NC(=O)C[N+](C)(C)C)c2nc3ccccc3[nH]c2=O)cc1 | > 100 | > 100 | > 100 | > 100 | > 100 | > 100 | > 100 | > 100 | > 100 | > 100 | – | – | – | – | – |
| CN1C=COC1N=C1CCCCC1 (configuration not stated) | > 100 | – | – | – | > 100 | > 100 | – | > 100 | > 100 | > 100 | > 100 | > 100 | > 100 | > 100 | – |
| COc1ccc(Cn2c3ccc([N+](=O)[O-])cc3c(=O)n2Cc2ccccn2)cc1 | > 100 | – | – | – | > 100 | > 100 | – | > 100 | > 100 | > 100 | > 100 | 75.1 | > 100 | > 100 | – |
| C[N+](C)(C)CC(=O)N/N=C(/Cc1nc2ccc([N+](=O)[O-])cc2[nH]c1=O)C(=O)Nc1cc(C(F)(F)F)ccc1Cl | > 100 | > 100 | > 100 | – | – | > 100 | > 100 | > 100 | > 100 | > 100 | – | > 100 | – | – | – |
| CCOC1NC(/N=C/c2ccc(OC)cc2)=C(C#N)C1C#N (configuration not stated) | > 100 | – | – | – | > 100 | > 100 | – | > 100 | > 100 | > 100 | > 100 | > 100 | > 100 | > 100 | – |
| NCCS(=O)(=O)O | > 100 | – | – | – | > 100 | > 100 | – | > 100 | > 100 | > 100 | > 100 | > 100 | > 100 | > 100 | – |
| Cn1c(COC(=O)NC2CCCCC2)c(COC(=O)NC2CCCCC2)c2ccc3cc(C=O)ccc3c21 | > 100 | – | – | – | > 100 | > 100 | – | > 100 | > 100 | > 100 | > 100 | > 100 | > 100 | > 100 | – |
| OC1(c2ccc(Cl)cc2)c2c(c3ccccc3c3ccccc23)C2=NCCN21 (configuration not stated) | > 100 | – | – | – | > 100 | 35.5 | – | 24.5 | 36.7 | 24.6 | 45.6 | > 100 | 18.6 | 26.8 | – |
| CC1CCOc2ccc(cc2)C=Nc2ccc(cc2)-c2ccc(cc2)N=Cc2ccc(cc2)OCC1 (configuration not stated) | > 100 | – | – | – | > 100 | > 100 | – | > 100 | > 100 | > 100 | > 100 | > 100 | > 100 | > 100 | – |
| Nc1ccccc1OCCCOc1ccccc1N | > 100 | – | – | – | > 100 | > 100 | – | > 100 | > 100 | > 100 | > 100 | > 100 | > 100 | > 100 | – |
| COc1ccc(N2N=NN(C(C)C)/C2=C(/Cl)c2nnnn2-c2ccc(OC)cc2)cc1 | 13.1 | – | – | – | 31.4 | 24.4 | – | 33 | 29.6 | 10.8 | 22.7 | 5.15 | 52.6 | 22.6 | – |
| CC1=NN(C(=O)Cc2ccccc2)C(=O)/C1=C\c1ccccc1O | > 100 | > 100 | > 100 | – | > 100 | > 100 | > 100 | > 100 | > 100 | > 100 | – | > 100 | – | – | > 100 |
| O=C(CSCC(=O)N/N=C\c1ccccc1F)N/N=C\c1ccccc1F | > 100 | – | – | – | > 100 | > 100 | – | > 100 | > 100 | > 100 | > 100 | > 100 | > 100 | > 100 | – |
| CC(C)(C)OC(=O)n1c(Cl)c(C=O)c2ccccc21 | > 100 | – | – | – | 70.4 | > 100 | – | 47 | 96.4 | 41.3 | 39.6 | > 100 | > 100 | 84.5 | – |
| O=C(/C=C/c1ccccc1)Oc1cccc(Br)c1 | > 100 | – | – | – | 42.2 | > 100 | – | > 100 | > 100 | > 100 | > 100 | 52.1 | > 100 | > 100 | – |
| COC1=CC(=O)c2nc3ccccc3c3ccnc1c23 | 26.3 | – | – | – | 13.5 | 12.5 | – | 16 | 21.8 | > 50.2 | 14.4 | 10.7 | > 47 | > 69 | – |
| CC1C(C#N)(C#N)C(C#N)=C(N)C1(C)[N+](=O)[O-] (configuration not stated) | > 100 | – | – | – | > 100 | > 100 | – | > 100 | > 100 | > 100 | > 100 | 90.7 | > 100 | > 100 | – |
| CC(=O)OCC1OC(n2c(N)c(C#N)c(-c3cccc(Cl)c3)c(C#N)c2=S)C(OC(C)=O)C(OC(C)=O)C1OC(C)=O (configuration not stated) | 29.7 | – | – | – | > 100 | 84.5 | – | 92.7 | 45.2 | > 100 | 82 | 52 | 91.5 | 50.2 | – |
| O=C(N[C@H]1CCC[C@H]1C(=O)Nc1ccc(C(F)(F)F)cc1)OCc1ccccc1 | > 100 | – | – | – | > 100 | > 100 | – | > 100 | > 100 | > 100 | > 100 | > 100 | > 100 | > 100 | – |
| COc1cc2c(c(OC)c1OC)-c1ccc(SC)c(=O)cc1[C@@H](NCc1cccc([N+](=O)[O-])c1)CC2 | < 0.01 | > 100 | – | – | – | < 0.01 | > 100 | < 0.01 | – | > 100 | – | > 100 | – | – | – |
| Cc1cn([C@@H]2C[C@H](CO)[C@@H]2O)c(=O)[nH]c1=O | > 100 | – | – | – | > 100 | > 100 | – | > 100 | > 100 | > 100 | > 100 | > 100 | > 100 | > 100 | – |
